Assay results from patent US8084455B2, “Use of a kinase inhibitor for the treatment of particular resistant tumors” (Nerviano Medical Sciences S.r.l., priority 2006, dated 2011).
Substitutions are numbered along the chain they refer to. Read-outs that look alike come from different tables or passages of the source.

Legend:
[1] = system: Imatinib-resistant ABL mutants; details: literature; cited from earlier work
[2] = target: T1, Wild-type ABL 0P (unphosphorylated ABL kinase domain) (Homo sapiens, UniProt P00519); details: Table 4; displacement of probe 3.2 at 2 μM
T1 sequence (P00519 229-512): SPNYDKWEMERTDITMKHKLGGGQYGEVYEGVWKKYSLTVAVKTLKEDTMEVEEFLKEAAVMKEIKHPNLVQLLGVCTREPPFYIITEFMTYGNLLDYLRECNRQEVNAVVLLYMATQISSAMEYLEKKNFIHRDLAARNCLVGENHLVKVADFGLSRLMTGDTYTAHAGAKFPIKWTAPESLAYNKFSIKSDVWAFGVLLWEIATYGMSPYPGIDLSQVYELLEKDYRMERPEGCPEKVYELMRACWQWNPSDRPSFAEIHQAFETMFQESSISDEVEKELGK
Method: (§1) In particular, titration data were fitted to the following equilibria: Enzyme+probe<==>Complex Enzyme-probe, while displacement data were fitted to the following equilibria: Enzyme+probe<==>Complex Enzyme-probe, Enzyme+Compound<==>Complex Enzyme-Compound, whereby binding of probe and compound on the enzyme are mutually exclusive (pure competitive mechanism).
(§2) The mixture of enzyme and probe was added to the previously diluted compounds. […] In agreement, affinity binding constants (KD) were determined by fitting with a pure competitive mechanism. KD values, are the average of three independent experiments.
(§3) The applied conditions were the same except for the saturating probe concentration (2, 3.3 and 0.2 μM for ABL wild-type unphosphorylated (0P), wild-type and T315I, respectively) and the probe final concentration (2, 3.3 and 0.2 μM for ABL wild-type unphosphorylated (0P), wild-type and T315I, respectively).
(§4) The displacement assay was performed as described before, with 3 μM as the highest inhibitor concentration tested.

[3] = target: T1, Wild-type ABL 0P (unphosphorylated ABL kinase domain); details: Table 1; displacement of probe 3.1 at 0.15 μM, 10 nM enzyme, average of three experiments
Method: (§5) In all experiments, the fluorescence signal was measured using a Fusion α-FP HT plate reader (Packard). Data analysis was performed using the Dynafit software.
as §1, §2
(§6) The displacement assay was performed as described before, with 3 μM as the highest inhibitor concentration tested with dilution steps 1:1.5.

[4] = target: T2, T315I ABL mutant kinase domain (Homo sapiens, UniProt P00519, T315I); details: Table 1; displacement of probe 3.1 at 0.42 μM, 10 nM enzyme, average of three experiments
T2 sequence (P00519 229-512 T315I): T1 sequence (P00519 229-512) with T87I

[5] = target: T2, T315I ABL mutant kinase domain; details: Table 4; displacement of probe 3.2 at 0.2 μM
[6] = target: T3, Wild-type ABL kinase domain (Homo sapiens, UniProt P00519); details: Table 4; displacement of probe 3.2 at 3.3 μM
T3 sequence (P00519 229-512): T1 sequence (P00519 229-512)
Method: as §1, §2, §3, §4

[7] = target: T3, Wild-type ABL kinase domain; details: Table 1; displacement of probe 3.1 at 0.12 μM, 10 nM enzyme, average of three experiments
Method: as §5, §1, §2, §6

Row | Kd [2] | Kd [3] | Kd [4] | Kd [5] | Kd [6] | Kd [7] | Structure (SMILES) | activity against Imatinib-resistant ABL mutants [1]
1 | – | – | – | – | – | – | Cc1cn(-c2cc(NC(=O)c3ccc(C)c(Nc4nccc(-c5cccnc5)n4)c3)cc(C(F)(F)F)c2)cn1 [AMN107] | active against the majority
2 | 6.6 ± 1.6 µM | 9.5 ± 3.4 µM | 2 ± 0.21 µM | 2.61 ± 0.9 µM | 4.8 ± 1 µM | 9 ± 1.9 µM | Nc1ncnc2c1ncn2[C@@H]1O[C@H](COP(=O)(O)OP(=O)(O)OP(O)(O)=S)[C@@H](O)[C@H]1O [ATPγS] | –
